# Reference: ChEMBL document CHEMBL1127065, “Nucleoside conjugates. 13. Synthesis and antitumor activity of 1-beta-D-arabinofuranosylcytosine conjugates of thioether lipids with improved water solubility” (J Med Chem, 1993)
# Values joined by “and” are separate entries in the source; they are usually repeats but may differ in a detail not shown here. Equal entries are not always repeated.
# Columns and labels:
# Mus musculus [1] = experiment: Median T/C calculated based on survivors at 400 mg/kg (437 umol) per day against Ip-implanted L1210 lymphoid leukemia mice; format: functional
# Mus musculus [2] = experiment: Number of survivors in mice bearing ip-implanted L1210 lymphoid leukemia after 45 day; format: functional
# [3] = Water solubility was determined by UV absorption at 273 nm; format: ADME
# Mus musculus [4] = experiment: Percent increase in life span at 400 mg/kg (437 umol) per day; format: functional
# Mus musculus [5] = experiment: Median T/C calculated based on survivors at 150 mg/kg (164 umol) per day; format: functional
# Mus musculus [6] = experiment: Percent increase in life span at 150 mg/kg (164 umol) per day; format: functional
# Mus musculus [7] = experiment: Median T/C calculated based on survivors at 150 mg/kg (150 umol) per day against Ip-implanted L1210 lymphoid leukemia mice; format: functional
# Mus musculus [8] = experiment: Percent increase in life span at 400 mg/kg (400 umol) per day; format: functional
# Mus musculus [9] = experiment: Median T/C calculated based on survivors at 400 mg/kg (400 umol) per day against Ip-implanted L1210 lymphoid leukemia mice; format: functional
# Mus musculus [10] = experiment: Percent increase in life span at 150 mg/kg (150 umol) per day; format: functional
# Mus musculus [11] = experiment: Percent increase in life span at 300 mg/kg (309 umol) per day; format: functional
# Mus musculus [12] = experiment: Percent increase in life span at 150 mg/kg (154 umol) per day; format: functional
# Mus musculus [13] = experiment: Median T/C calculated based on survivors at 150 mg/kg (154 umol) per day against Ip-implanted L1210 lymphoid leukemia mice; format: functional
# Mus musculus [14] = experiment: Median T/C calculated based on survivors at 300 mg/kg (309 umol) per day against Ip-implanted L1210 lymphoid leukemia mice; format: functional
# Mus musculus [15] = experiment: Percent increase in life span at 300 mg/kg (318 umol) per day; format: functional
# Mus musculus [16] = experiment: Median T/C calculated based on survivors at 300 mg/kg (318 umol) per day against Ip-implanted L1210 lymphoid leukemia mice; format: functional
# Mus musculus [17] = experiment: Median T/C calculated based on survivors at 400 mg/kg (389 umol) per day; format: functional
# Mus musculus [18] = experiment: Percent increase in life span at 400 mg/kg (389 umol) per day against Ip-implanted L1210 lymphoid leukemia mice; format: functional
# Mus musculus [19] = experiment: Change in weight in mice bearing ip-implanted L1210 lymphoid leukemia on day 8 at 300 mg/kg or 309 umol/kg per day; format: functional
# Mus musculus [20] = experiment: Median T/C calculated based on survivors at 400 mg/kg (411 umol) per day against Ip-implanted L1210 lymphoid leukemia mice; format: functional
# Mus musculus [21] = experiment: Percent increase in life span at 400 mg/kg (411 umol) per day; format: functional
# Mus musculus [22] = experiment: Median T/C calculated based on survivors at 300 mg/kg (328 umol) per day against Ip-implanted L1210 lymphoid leukemia mice; format: functional
# Mus musculus [23] = experiment: Median T/C calculated based on survivors at 200 mg/kg (218 umol) per day; format: functional
# Mus musculus [24] = experiment: Percent increase in life span at 300 mg/kg (328 umol) per day; format: functional
# Mus musculus [25] = experiment: Percent increase in life span at 200 mg/kg (218 umol) per day; format: functional
# Mus musculus [26] = experiment: Median T/C calculated based on survivors at 300 mg/kg (300 umol) per day against Ip-implanted L1210 lymphoid leukemia mice; format: functional
# Mus musculus [27] = experiment: Percent increase in life span at 300 mg/kg (300 umol) per day; format: functional
# Mus musculus [28] = experiment: Percent increase in life span at 200 mg/kg (822 umol) per day; format: functional
# Mus musculus [29] = experiment: Change in weight in mice bearing ip-implanted L1210 lymphoid leukemia on day 8 at 71 mg/kg or 292 umol/kg per day; format: functional
# Mus musculus [30] = experiment: Percent increase in life span at 100 mg/kg (411 umol) per day; format: functional
# Mus musculus [31] = experiment: Change in weight in mice bearing ip-implanted L1210 lymphoid leukemia on day 8 at 100 mg/kg or 411 umol/kg per day; format: functional
# Mus musculus [32] = experiment: Median T/C calculated based on survivors at 71 mg/kg (292 umol) per day against Ip-implanted L1210 lymphoid leukemia mice; format: functional
# Mus musculus [33] = experiment: Median T/C calculated based on survivors at 200 mg/kg (822 umol) per day against Ip-implanted L1210 lymphoid leukemia mice; format: functional
# Mus musculus [34] = experiment: Median T/C calculated based on survivors at 100 mg/kg (411 umol) per day against Ip-implanted L1210 lymphoid leukemia mice; format: functional
# Mus musculus [35] = experiment: Change in weight in mice bearing ip-implanted L1210 lymphoid leukemia on day 8 at 200 mg/kg or 822 umol/kg per day; format: functional
# Mus musculus [36] = experiment: Percent increase in life span at 71 mg/kg (292 umol) per day; format: functional
# Mus musculus [37] = experiment: Median T/C calculated based on survivors at 300 mg/kg (292 umol) per day against Ip-implanted L1210 lymphoid leukemia mice; format: functional
# Mus musculus [38] = experiment: Change in weight in mice bearing ip-implanted L1210 lymphoid leukemia on day 8 at 300 mg/kg or 292 umol/kg per day; format: functional
# Mus musculus [39] = experiment: Percent increase in life span at 300 mg/kg (292 umol) per day; format: functional
# Mus musculus [40] = experiment: Number of survivors in mice bearing ip-implanted L1210 lymphoid leukemia after 45 day against Ip-implanted L1210 lymphoid leukemia mice; format: functional
# Mus musculus [41] = experiment: Median T/C calculated based on survivors at 150 mg/kg (146 umol) per day against Ip-implanted L1210 lymphoid leukemia mice; format: functional
smiles,measurement,setting,value
CCCCCCCCCCCCCCSCC(COP(=O)([O-])OP(=O)([O-])OC[C@H]1OC(n2ccc(N)nc2=O)[C@@H](O)[C@@H]1O)OC(=O)CCCCCCCCCCC.[Na+].[Na+] (some centres not stated),Median T/C,Mus musculus [1],16
same,Survivors,Mus musculus [2],0
same,solubility,[3],> 50 mM
same,ILS at 400 mg/kg,Mus musculus [4],129%
CCCCCCCCCCCCCCCC(=O)OC(COP(=O)([O-])OP(=O)([O-])OC[C@H]1OC(n2ccc(N)nc2=O)[C@@H](O)[C@@H]1O)CSCCCCCCCCCC.[Na+].[Na+] (some centres not stated),Median T/C,Mus musculus [1],15
same,Survivors,Mus musculus [2],0
same,Median T/C,Mus musculus [5],21
same,solubility,[3],> 58 mM
same,ILS at 400 mg/kg,Mus musculus [4],114%
same,ILS at 150 mg/kg,Mus musculus [6],200%
CCCCCCCCCCCCCCCCCCSCC(COP(=O)([O-])OP(=O)([O-])OC[C@H]1OC(n2ccc(N)nc2=O)[C@@H](O)[C@@H]1O)OC(=O)CCCCCCCCCCCCC.[Na+].[Na+] (some centres not stated),Survivors,Mus musculus [2],1 and 3
same,Median T/C,Mus musculus [7],39.5
same,solubility,[3],> 62 mM
same,ILS at 400 mg/kg,Mus musculus [8],213%
same,Median T/C,Mus musculus [9],25
same,ILS at 150 mg/kg,Mus musculus [10],> 464%
CCCCCCCCCCCCCCCCCCSCC(COP(=O)([O-])OP(=O)([O-])OC[C@H]1OC(n2ccc(N)nc2=O)[C@@H](O)[C@@H]1O)OC(=O)CCCCCCCCCCC.[Na+].[Na+] (some centres not stated),Survivors,Mus musculus [2],1 and 2
same,ILS at 300 mg/kg,Mus musculus [11],213%
same,ILS at 150 mg/kg,Mus musculus [12],371%
same,solubility,[3],> 54 mM
same,Median T/C,Mus musculus [13],33
same,Median T/C,Mus musculus [14],25
CCCCCCCCCCCCCCSCC(COP(=O)([O-])OP(=O)([O-])OC[C@H]1OC(n2ccc(N)nc2=O)[C@@H](O)[C@@H]1O)OC(=O)CCCCCCCCCCCCC.[Na+].[Na+] (some centres not stated),Survivors,Mus musculus [2],2
same,solubility,[3],> 60 mM
same,ILS at 300 mg/kg,Mus musculus [15],243%
same,Median T/C,Mus musculus [16],24
CCCCCCCCCCCCCCCCCC(=O)OC(COP(=O)([O-])OP(=O)([O-])OC[C@H]1OC(n2ccc(N)nc2=O)[C@@H](O)[C@@H]1O)CSCCCCCCCCCCCCCCCC.[Na+].[Na+] (some centres not stated),Survivors,Mus musculus [2],3
same,Median T/C,Mus musculus [17],>43.5
same,solubility,[3],0.2 mM
same,ILS at 400 mg/kg,Mus musculus [18],> 521%
CCCCCCCCCCCCCCCCSCC(COP(=O)([O-])OP(=O)([O-])OC[C@H]1OC(n2ccc(N)nc2=O)[C@@H](O)[C@@H]1O)OC(=O)CCCCCCCCCCC.[Na+].[Na+] (some centres not stated),Survivors,Mus musculus [2],2
same,solubility,[3],> 64 mM
same,ILS at 300 mg/kg,Mus musculus [15],178%
same,Median T/C,Mus musculus [16],19.5
CCCCCCCCCCCCCCCCSCC(COP(=O)([O-])OP(=O)([O-])OC[C@H]1OC(n2ccc(N)nc2=O)[C@@H](O)[C@@H]1O)OC(=O)CCCCCCCCCCCCC.[Na+].[Na+] (some centres not stated),Survivors,Mus musculus [2],2
same,ILS at 300 mg/kg,Mus musculus [11],386%
same,solubility,[3],> 53 mM
same,Weight change,Mus musculus [19],-1.8 g mouse-1
same,Median T/C,Mus musculus [14],34
CCCCCCCCCCCCCCCC(=O)OC(COP(=O)([O-])OP(=O)([O-])OC[C@H]1OC(n2ccc(N)nc2=O)[C@@H](O)[C@@H]1O)CSCCCCCCCCCCCCCC.[Na+].[Na+] (some centres not stated),Survivors,Mus musculus [2],3 and 1 and 2
same,Median T/C,Mus musculus [20],>36.5 and 34.5
same,ILS at 150 mg/kg,Mus musculus [12],321%
same,solubility,[3],1.5 mM
same,ILS,Mus musculus [21],>421% and 393%
same,Weight change,Mus musculus [19],0.5 g mouse-1
same,Median T/C,Mus musculus [13],29.5
CCCCCCCCCCCCCC(=O)OC(COP(=O)([O-])OP(=O)([O-])OC[C@H]1OC(n2ccc(N)nc2=O)[C@@H](O)[C@@H]1O)CSCCCCCCCCCCCC.[Na+].[Na+] (some centres not stated),Median T/C,Mus musculus [22],14.5
same,Median T/C,Mus musculus [23],>45
same,ILS at 300 mg/kg,Mus musculus [24],81%
same,solubility,[3],> 68 mM
same,ILS at 200 mg/kg,Mus musculus [25],463%
CCCCCCCCCCCCCCCCSCC(COP(=O)([O-])OP(=O)([O-])OC[C@H]1OC(n2ccc(N)nc2=O)[C@@H](O)[C@@H]1O)OC(=O)CCCCCCCCCCCCCCC.[Na+].[Na+] (some centres not stated),Median T/C,Mus musculus [26],37.5
same,Survivors,Mus musculus [2],2
same,ILS at 300 mg/kg,Mus musculus [27],> 436%
same,solubility,[3],0.2 mM
Nc1ccn([C@@H]2O[C@H](CO)[C@@H](O)[C@@H]2O)c(=O)n1 [CYTARABINE],Survivors,Mus musculus [2],0
same,ILS at 200 mg/kg,Mus musculus [28],100%
same,Weight change,Mus musculus [29],-3.8 g mouse-1
same,ILS at 100 mg/kg,Mus musculus [30],129%
same,Weight change,Mus musculus [31],-3.1 g mouse-1
same,Median T/C,Mus musculus [32],8
same,Median T/C,Mus musculus [33],14
same,Median T/C,Mus musculus [34],16
same,Weight change,Mus musculus [35],-6.1 g mouse-1
same,ILS at 71 mg/kg,Mus musculus [36],23%
CCCCCCCCCCCCCCCCCCSCC(COP(=O)([O-])OP(=O)([O-])OC[C@H]1OC(n2ccc(N)nc2=O)[C@@H](O)[C@@H]1O)OC(=O)CCCCCCCCCCCCCCC.[Na+].[Na+] (some centres not stated) [CYTOROS],Median T/C,Mus musculus [37],>45
same,Survivors,Mus musculus [2],1
same,Weight change,Mus musculus [38],-2.4 g mouse-1
same,ILS,Mus musculus [39],>543% and >293%
same,solubility,[3],0.2 mM
same,Survivors,Mus musculus [40],4
same,Median T/C,Mus musculus [41],27.5
